Entries after “also recorded” stand apart in the source; their conditions may differ. Where two headings read alike, the source gives them in different places.
Legend:
15-lipoxygenase (15-LO) [1] = assay: 15(S)-HETE ELISA following erastin treatment, Leigh fibroblasts; assay type: cell-based, human; conditions: erastin + FAC + AA, 1 μM compound, 24 h
Experimental: (§1) Samples for the 15(S)-HETE ELISA were generated by the Erastin Assay described above. Healthy or Leigh fibroblasts were resuspended in assay medium, seeded at 200,000 cells/well in a clear, tissue culture-treated, 24-well plate, and incubated at 37° C. for 24 hours. Supernatant was aspirated from each well.
(§2) Ferroptosis was induced using erastin at 2 μM concentration. 15(S)-HETE, which is a metabolite of arachidonic acid and generated by activity of 15-LO, was measured using a commercially available ELISA kit. Data were normalized to the “No treatment” group, which represented fibroblasts that were not injured with erastin.

[2] = assay type: in vivo; conditions: rat, single dose 1 mg/kg IV, 10 mg/kg SC or 10 mg/kg PO
Experimental: • Animals: Rat/Sprague Dawley/Male/Naive 225-250 grams were received from an approved vendor. • Animals were fasted overnight prior to dose administration. Food was returned following the 2 hour sample collection. • Body weights were recorded prior to dose administration. The volume of each dose delivered (ml/kg) was based on each individual animal's body weight. • This was a single dose, serial blood collection study with tissues collected for possible future analysis. • Doses were administered in accordance with test facility standard operating procedures. […].
• Blood samples were collected via jugular vein catheter (JVC) and transferred to tubes with appropriate anticoagulant. The tubes were stored on wet ice until processed to plasma by centrifugation (3500 rpm at 5° C. for 10 minutes) within 20 minutes of collection. Sample aliquots of 100 μL were transferred into individual uniquely labeled matrix tubes containing 10 μL of 5% (v/v) formic acid aqueous solution and stored at nominal −80° C. until analyzed by LC/MS/MS. • Immediately following final serial blood collection (24 hours, JVC), animals were sacrificed and perfused with cold PBS. […]

15-lipoxygenase (15-LO) [3] = assay: 15(S)-HETE ELISA following erastin treatment, healthy fibroblasts; assay type: cell-based, human; conditions: erastin + FAC + AA, 1 μM compound, 24 h
Experimental: as §1, §2

[4] = Pharmacokinetics of Compound 3, repeated (5 days) subcutaneous dose, rats; assay type: in vivo, Sprague Dawley rats
Experimental: • Animals: Rat/Sprague Dawley/Male/Naive 225-250 grams were received from an approved vendor. • Fasting was not required for this study. • Body weights were recorded prior to dose administration. The volume of each dose delivered (mL/kg) was based on each individual animal's body weight. • This was a multiple dose terminal study dosed once per day over 5 days. Rats were taken down following their 5th and final dose. • Doses were administered in accordance with test facility standard operating procedures. […] Any abnormalities were recorded. • Pre-formulated Compounds 3 was provided by Study sponsor ready to be dosed for each day in accordance with the Study Design set forth in Table 3, below.
• Terminal blood samples were collected via cardiac puncture following inhalation anesthesia in accordance with test facility standard operating procedures. • Blood samples were collected into tubes with appropriate anticoagulant. Tubes were stored on wet ice until processed to plasma by centrifugation (3500 rpm at 5° C. for 10 minutes) within 20 minutes of collection. Sample aliquots of 100 μL were transferred into individual uniquely labeled matrix tubes and stored at nominal −80° C. until transferred to analytical chemistry for analysis. • Immediately following each terminal blood collection for all groups, animals were sacrificed and perfused with cold PBS. […]

[5] = Compound 4 pharmacokinetics and tissue exposure, five daily subcutaneous doses, mice; assay type: in vivo, C57BL/6 mice
Experimental: • Animals were allowed to acclimate to the test facility for at least two days prior to the beginning of the study. • Study animals were male C57BL/6 mice weighing approximately 18-25 grams each. • Fasting was not required for the study. • Body weights were recorded prior to dose administration. The volume of each dose delivered (mL/kg) was based on each individual animal's body weight. • This was a multiple dose serial PK dosed subcutaneously once daily over 5 days. Compound 4 was administered to two groups: Group 1 at 60 mg/kg and Group 2 at 180 mg/kg (6 and 18 mg/mL, 15% Kolliphor ELP in PBS, 10 mL/kg; N=3/group). Serial PK timepoints were collected following the 5th and final dose.
• Serial blood samples were collected via tail vein snip. • Blood samples were collected into tubes with anticoagulant. Tubes were stored on wet ice until processed to plasma by centrifugation (3500 rpm at 5° C. for 10 minutes) within 20 minutes of collection. Sample aliquots of 20 μL were transferred into individual uniquely labeled matrix tubes and stored at nominal −80° C. until transferred to analytical chemistry for analysis. • Immediately following each terminal blood collection for all groups, animals were sacrificed and perfused with cold PBS. Heart and brain tissues were collected. • Perfusion methodology: The chest was opened lengthwise using scissors to expose the thoracic organs. A scalpel was used to cut a small hole into the left ventricle just large enough to insert a cannula tip. The cannula was attached to an appropriately sized tubing and syringe prefilled with cold PBS and primed to remove any air. The tip of the cannula was inserted into the left ventricle and directed into the ascending aorta. Hemostats were used to help keep the cannula in place during perfusion. A second hole was made in the right atrium to allow for the escape of fluid during the return circulation. The syringe attached to the cannula was manually pushed or placed into a pump programmed to infuse at 10 mL/min. Animals were perfused for a minimum of 3 minutes or more if needed (until the exiting fluid was clear).
• N=3/group; • Collections relative to the final dose: • Plasma: 60 mg/kg at 2 and 24 hr; 180 mg/kg at predose, 2, 8, and 24 hr • Heart and Brain: 24 hr (terminal, PBS-perfused); • RGA 2 bioanalysis. […]

[6] = male, C57BL/6, mouse, in vivo, sc
[7] = male, C57BL/6, mouse, in vivo, sc, 60 mg/kg
[8] = male, C57BL/6, mouse, in vivo, sc, 60 mg/kg, 24 h
[9] = male, C57BL/6, mouse, in vivo, sc, 180 mg/kg
[10] = male, C57BL/6, mouse, in vivo, sc, 180 mg/kg, 24 h

For `CC1=C(C)C(=O)C(CC[C@@](C)(O)CC/C=C(\C)CCC=C(F)F)=C(C)C1=O` [Compound 2], the “relative 15-LO inhibition (comparison between test articles)” value (15-lipoxygenase (15-LO) [1]) was “slightly less effective”, the tolerability [2] was “well tolerated” and the “delivery by mode of administration” value ([2]; preliminary) was “effectively administered”. The “relative 15-LO inhibition (comparison between test articles)” value (15-lipoxygenase (15-LO) [3]) was “slightly less effective”.

In the case of `CC1=C(C)C(=O)C(CC[C@@](C)(O)COCCC[Si](C)(C)C)=C(C)C1=O` [Compound 3], the “plasma uptake and clearance across species (mouse versus rat)” value ([4]; 20 mg/kg SC in mouse versus 10 mg/kg SC in rat (60 mg/m^2)) is reported as “roughly equivalent; also recorded: scales well by allometry” and the tolerability ([4]; rat, 10 mg/kg SC once per day for 5 days) is reported as “well tolerated”.

In the case of `CC1=C(C)C(=O)C(CC[C@](C)(O)CCCCCCCCC(F)(F)F)=C(C)C1=O` [Compound 4], the tolerability ([5]; 60 and 180 mg/kg SC over 5 days, 10 mL/kg QD, 15% Kolliphor ELP in PBS) is reported as “well tolerated”, the “Geomean C24” value ([5]; male, C57BL/6, mouse, in vivo, 180 mg/kg, 24 h) is reported as 602 ng/g and the concentration at 24 h ([5]; male, C57BL/6, mouse, in vivo, 180 mg/kg, Geomean C24) is reported as 514 ng/g. The time to steady-state [5, 6] was no more than 5 days, the AUC(0-t) [5, 7] was 15400 ng·h/mL and the AUClast/Dose [5, 7] was 257 kg·ng·h/mL/mg. The Cmax [5, 7] was 1440 ng/mL, the “Concentration in C57BL/6 Mouse Tissue, Geomean” value [5, 8] was 225 ng/g and the “Concentration in C57BL/6 Mouse Tissue, Mean” value [5, 8] was 226 ng/g. It also gave a Cmax ([5]; male, C57BL/6, mouse, in vivo, sc, 60 mg/kg, Cmax) of 1810 ng/mL, a concentration at 24 h ([5]; male, C57BL/6, mouse, in vivo, sc, 60 mg/kg, Concentration in C57BL/6 Mouse Tissue, Geomean) of 192 ng/g and a concentration at 24 h ([5]; male, C57BL/6, mouse, in vivo, sc, 60 mg/kg, Concentration in C57BL/6 Mouse Tissue, Mean) of 212 ng/g. It also gave an AUC(0-t) [5, 9] of 49100 ng·h/mL, an AUClast/Dose [5, 9] of 273 kg·ng·h/mL/mg and a Cmax/Dose [5, 9] of 26.7 kg·ng/mL/mg. For the same compound, the C24/Dose [5, 10] was 1.48 kg·ng/mL/mg, the “Concentration in C57BL/6 Mouse Tissue, Geomean” value [5, 10] was 602 ng/g and the “Concentration in C57BL/6 Mouse Tissue, Mean” value [5, 10] was 635 ng/g. The concentration at 24 h ([5]; male, C57BL/6, mouse, in vivo, sc, 180 mg/kg, C24) was 266 ng/mL, the Cmax ([5]; male, C57BL/6, mouse, in vivo, sc, 180 mg/kg, Cmax) was 4800 ng/mL and the concentration at 24 h ([5]; male, C57BL/6, mouse, in vivo, sc, 180 mg/kg, Concentration in C57BL/6 Mouse Tissue, Geomean) was 514 ng/g. The concentration at 24 h ([5]; male, C57BL/6, mouse, in vivo, sc, 180 mg/kg, Concentration in C57BL/6 Mouse Tissue, Mean) was 529 ng/g, the Tmax [5, 9] was 2 h and the Tmax [5, 6] was 0.5 to 2 h. The “plasma exposure versus dose” value ([5]; mouse, in vivo) was “approximately proportional to dose” and the “tissue C24 (trough) exposure versus dose” value ([5]; mouse, in vivo) was “approximately proportional to dose”.

Source: patent US20250090562A1, “METHODS, COMPOSITIONS AND USES RELATED TO THE TREATMENT AND PREVENTION OF LEIGH’S SYNDROME” (Stealth BioTherapeutics Inc., priority 2023, published 2025)
